pIC50: −log10 of the molar value.
What was measured:
[1] = biological target: T1, c-Met (cytoplasmic domain) (Homo sapiens, UniProt P08581); assay: c-Met Kinase Assay (ELISA/TRF, PLC-γ substrate); assay type: biochemical; conditions: 3 μM ATP (Km level); read-out: c-Met Kinase Inhibition (IC50)
T1 construct: Reactions were initiated with 30 ng/mL c-Met (cytoplasmic domain, Invitrogen Corporation #PV3143); purchased Invitrogen Corporation PV3143
Summary of the method: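 c-Met cytoplasmic domain (30 ng/mL) phosphorylates plate-coated GST–PLC-γ for 15 min at 37 °C. Phosphotyrosine detected with Eu-labeled PT66 antibody by time-resolved fluorescence. IC50 from variable-slope sigmoidal fit of % inhibition vs log concentration.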

[2] = biological target: baculovirus-expressed ALK (Homo sapiens, UniProt Q9UM73); assay: ALK Kinase Assay (ELISA/TRF, PLC-γ substrate); assay type: biochemical; conditions: read-out: ALK Kinase Inhibition (IC50); further: 1 µM ATP (Km level)
Chain of baculovirus-expressed ALK (Q9UM73 19-1620): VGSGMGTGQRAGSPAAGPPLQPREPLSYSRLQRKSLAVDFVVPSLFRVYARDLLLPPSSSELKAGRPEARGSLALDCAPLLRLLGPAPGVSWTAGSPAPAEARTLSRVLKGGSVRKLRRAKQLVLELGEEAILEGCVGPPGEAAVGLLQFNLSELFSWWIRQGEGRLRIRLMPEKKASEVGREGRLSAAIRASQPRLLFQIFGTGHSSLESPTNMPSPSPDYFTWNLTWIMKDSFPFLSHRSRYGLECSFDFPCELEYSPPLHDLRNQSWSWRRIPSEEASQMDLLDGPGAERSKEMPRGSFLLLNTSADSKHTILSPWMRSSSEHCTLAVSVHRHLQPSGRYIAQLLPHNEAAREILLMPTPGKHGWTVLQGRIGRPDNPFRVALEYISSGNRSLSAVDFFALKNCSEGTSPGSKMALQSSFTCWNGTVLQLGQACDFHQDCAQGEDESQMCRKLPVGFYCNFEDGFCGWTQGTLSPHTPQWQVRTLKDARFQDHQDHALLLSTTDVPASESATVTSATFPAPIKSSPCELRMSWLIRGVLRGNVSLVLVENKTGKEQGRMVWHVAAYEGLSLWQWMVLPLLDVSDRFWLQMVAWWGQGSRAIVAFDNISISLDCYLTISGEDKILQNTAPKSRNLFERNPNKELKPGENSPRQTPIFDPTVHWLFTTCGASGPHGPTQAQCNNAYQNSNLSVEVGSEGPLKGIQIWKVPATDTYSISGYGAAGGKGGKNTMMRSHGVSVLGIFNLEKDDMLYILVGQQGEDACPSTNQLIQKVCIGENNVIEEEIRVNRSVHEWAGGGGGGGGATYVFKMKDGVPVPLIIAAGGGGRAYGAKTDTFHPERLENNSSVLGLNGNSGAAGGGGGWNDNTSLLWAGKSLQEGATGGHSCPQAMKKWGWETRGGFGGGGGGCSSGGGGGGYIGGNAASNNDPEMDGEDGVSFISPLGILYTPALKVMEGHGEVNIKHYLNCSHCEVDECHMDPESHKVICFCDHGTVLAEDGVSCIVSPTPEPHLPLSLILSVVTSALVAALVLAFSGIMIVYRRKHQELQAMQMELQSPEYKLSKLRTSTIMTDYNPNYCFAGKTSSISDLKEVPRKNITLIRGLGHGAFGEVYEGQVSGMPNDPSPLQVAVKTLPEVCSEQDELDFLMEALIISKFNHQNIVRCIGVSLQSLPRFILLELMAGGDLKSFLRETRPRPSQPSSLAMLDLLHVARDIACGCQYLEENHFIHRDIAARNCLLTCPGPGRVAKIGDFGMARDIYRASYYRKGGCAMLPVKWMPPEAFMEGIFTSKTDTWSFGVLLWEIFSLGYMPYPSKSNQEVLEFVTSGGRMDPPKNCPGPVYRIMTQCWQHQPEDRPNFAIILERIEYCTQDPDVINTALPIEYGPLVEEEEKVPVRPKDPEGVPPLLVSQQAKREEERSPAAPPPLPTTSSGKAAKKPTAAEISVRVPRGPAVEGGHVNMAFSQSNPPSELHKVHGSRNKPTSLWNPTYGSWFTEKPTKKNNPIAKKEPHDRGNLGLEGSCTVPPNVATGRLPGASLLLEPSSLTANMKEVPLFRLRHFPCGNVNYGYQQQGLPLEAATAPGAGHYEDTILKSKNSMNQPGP
Summary of the method: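 An ELISA adapted from a trkA format was used: wells carried GST-fused PLC-γ substrate, and enzyme addition (30 ng/ml ALK) started a 15-minute reaction at 37° C.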

T1 sequence (P08581 956-1390 limits assumed): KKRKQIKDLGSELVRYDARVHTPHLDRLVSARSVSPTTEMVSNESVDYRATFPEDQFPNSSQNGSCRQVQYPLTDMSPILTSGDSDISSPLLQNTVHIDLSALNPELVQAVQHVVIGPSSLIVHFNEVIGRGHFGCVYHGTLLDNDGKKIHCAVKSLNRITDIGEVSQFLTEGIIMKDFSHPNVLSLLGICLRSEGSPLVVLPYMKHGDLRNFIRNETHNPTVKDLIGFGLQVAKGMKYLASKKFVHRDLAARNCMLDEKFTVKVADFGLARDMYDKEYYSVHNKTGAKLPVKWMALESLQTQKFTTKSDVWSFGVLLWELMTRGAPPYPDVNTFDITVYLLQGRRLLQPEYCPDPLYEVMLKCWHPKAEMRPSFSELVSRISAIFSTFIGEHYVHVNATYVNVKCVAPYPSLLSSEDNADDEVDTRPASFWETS

pIC50 [1] | pIC50 [2] | melting point | Compound
< 4.00 | 4.00 to 5.00 | 178 °C | CCOC(=O)c1ccc(-c2cnc3c(c2)N(Cc2ccccc2)C(=O)CN3)cc1 [Example 9, 4-(1-Benzyl-2-oxo-1,2,3,4-tetrahydropyrido[2,3-b]pyrazin-7-yl)benzoic acid ethyl ester]
4.00 to 5.00 | 4.00 to 5.00 | 226 °C | CCOC(=O)c1ccc(-c2cnc3c(c2)N(Cc2c(Cl)cccc2Cl)C(=O)CN3)cc1 [Example 139, 4-[1-(2,6-Dichlorobenzyl)-2-oxo-1,2,3,4-tetrahydropyrido[2,3-b]pyrazin-7-yl]benzoic acid ethyl ester]
5.00 to 6.00 | 6.00 to 7.00 | > 200 °C | O=C(NCCN1CCCC1)c1ccc(-c2cnc3c(c2)N(Cc2c(Cl)cccc2Cl)C(=O)CN3)cc1 [Example 142, 4-[1-(2,6-Dichlorobenzyl)-2-oxo-1,2,3,4-tetrahydropyrido[2,3-b]pyrazin-7-yl]-N-(2-pyrrolidin-1-yl-ethyl)benzamide]
5.00 to 6.00 | 6.00 to 7.00 | 186 °C (dec.) | O=C(c1ccc(-c2cnc3c(c2)N(Cc2cc(F)ccc2F)C(=O)CN3)cc1)N1CCC(N2CCCC2)CC1 [Example 60, 1-(2,5-Difluorobenzyl)-7-[4-(4-(pyrrolidin-1-yl)piperidine-1-carbonyl)phenyl]-3,4-dihydro-1H-pyrido[2,3-b]pyrazin-2-one]
< 4.00 | 4.00 to 5.00 | > 200 °C | O=C(O)c1ccc(-c2cnc3c(c2)N(Cc2ccccc2)C(=O)CN3)cc1 [Example 10, 4-(1-Benzyl-2-oxo-1,2,3,4-tetrahydropyrido[2,3-b]pyrazin-7-yl)benzoic acid]
< 4.00 | 5.00 to 6.00 | 221 to 222 °C | N#Cc1cnc2c(c1)N(Cc1cc(Cl)ccc1Cl)CCN2 [Example 127, 1-(2,5-Dichlorobenzyl)-1,2,3,4-tetrahydropyrido[2,3-b]pyrazine-7-carbonitrile]
< 4.00 | < 4.00 | 126 to 128 °C | Ic1cnc2c(c1)NCCN2 [Example 40, 7-Iodo-1,2,3,4-tetrahydropyrido[2,3-b]pyrazine]
< 4.00 | 5.00 to 6.00 | 153 °C | CCOC(=O)c1ccc(-c2cnc3c(c2)N(Cc2ccccc2OC(F)(F)F)CCN3)cc1 [Example 297, 4-{1-[2-(Trifluoromethoxy)benzyl]-1,2,3,4-tetrahydropyrido[2,3-b]pyrazin-7-yl}benzoic acid ethyl ester]
4.00 to 5.00 | 5.00 to 6.00 | 117 to 118 °C | O=C1CNc2ncc(-c3ccc(C(=O)N4CCC[C@H]4CN4CCCC4)cc3)cc2N1Cc1cc(F)c(F)cc1F [Example 83, 7-[4-((S)-2-[(pyrrolidin-1-yl)methyl]pyrrolidine-1-carbonyl)phenyl]-1-(2,4,5-trifluorobenzyl)-3,4-dihydro-1H-pyrido[2,3-b]pyrazin-2-one]
< 4.00 | 5.00 to 6.00 | 189 to 191 °C | FC(F)(F)c1ccc(Cl)cc1CN1CCNc2ncc(I)cc21 [Example 115, 1-(5-Chloro-2-trifluoromethylbenzyl)-7-iodo-1,2,3,4-tetrahydropyrido[2,3-b]pyrazine]
< 4.00 | 4.00 to 5.00 | 252 to 253 °C | O=C1CNc2ncc(I)cc2N1Cc1cc(C(F)(F)F)ccc1Cl [Example 116, 1-(2-Chloro-5-trifluoromethylbenzyl)-7-iodo-3,4-dihydro-1H-pyrido[2,3-b]pyrazin-2-one]
4.00 to 5.00 | 6.00 to 7.00 | > 200 °C | O=S1(=O)CCN(CC#Cc2cnc3c(c2)N(Cc2cc(Cl)ccc2Cl)CCN3)CC1 [Example 174, 1-(2,5-Dichlorobenzyl)-7-[3-(1,1-dioxo-1λ^6-thiomorpholin-4-yl)prop-1-ynyl]-1,2,3,4-tetrahydropyrido[2,3-b]pyrazine]
< 4.00 | 6.00 to 7.00 | 200 °C (dec.) | N#Cc1ccc(-c2cnc3c(c2)N(Cc2cc(F)ccc2F)CCN3)cn1 [Example 71, 5-[1-(2,5-Difluorobenzyl)-1,2,3,4-tetrahydropyrido[2,3-b]pyrazin-7-yl]-pyridine-2-carbonitrile]
< 4.00 | < 4.00 | > 200 °C | CCOC(=O)c1ccc(-c2cnc3c(c2)NC(=O)CN3)cc1 [Example 135, 4-(2-Oxo-1,2,3,4-tetrahydropyrido[2,3-b]pyrazin-7-yl)benzoic acid ethyl ester]
4.00 to 5.00 | 6.00 to 7.00 | 215 to 216 °C | Cc1noc(C)c1-c1cnc2c(c1)N(Cc1c(F)ccc(F)c1Cl)CCN2 [Example 103, 1-(2-Chloro-3,6-difluorobenzyl)-7-(3,5-dimethyl-isoxazol-4-yl)-1,2,3,4-tetrahydropyrido[2,3-b]pyrazine]
< 4.00 | 5.00 to 6.00 | 180 to 182 °C | CCOC(=O)c1ccc(-c2cnc3c(c2)N(Cc2c(F)ccc(F)c2Cl)C(=O)CN3)cc1 [Example 5, 4-[1-(2-Chloro-3,6-difluorobenzyl)-2-oxo-1,2,3,4-tetrahydropyrido[2,3-b]pyrazin-7-yl]benzoic acid ethyl ester]
< 4.00 | 6.00 to 7.00 | 174 °C | CCOC(=O)c1cccc(-c2cnc3c(c2)N(Cc2cc(Cl)ccc2C(F)(F)F)CCN3)c1 [Example 194, 3-{1-[5-Chloro-2-(trifluoromethyl)benzyl]-1,2,3,4-tetrahydropyrido[2,3-b]pyrazin-7-yl}benzoic acid ethyl ester]
4.00 to 5.00 | 5.00 to 6.00 | > 300 °C | CN1CCN(c2ccc(-c3cnc4c(c3)N(C(=O)Cc3cc(F)ccc3F)CCN4)cn2)CC1 [Example 113]
< 4.00 | < 4.00 | > 200 °C | O=C1CNc2ncc(I)cc2N1Cc1c(Cl)cccc1Cl [Example 136, 1-(2,6-Dichlorobenzyl)-7-iodo-3,4-dihydro-1H-pyrido[2,3-b]pyrazin-2-one]
4.00 to 5.00 | 6.00 to 7.00 | > 200 °C | CN(C)CC(=O)NCC#Cc1cnc2c(c1)N(Cc1c(Cl)cccc1Cl)CCN2 [Example 172, N-{3-[1-(2,6-Dichlorobenzyl)-1,2,3,4-tetrahydropyrido[2,3-b]pyrazin-7-yl]prop-2-ynyl}-2-dimethylamino-acetamide]
4.00 to 5.00 | 6.00 to 7.00 | 223 °C (dec.) | CN1CCN(C(=O)c2ccc(-c3cnc4c(c3)N(Cc3cc(F)ccc3F)C(=O)CN4)cc2)CC1 [Example 59, 1-(2,5-Difluorobenzyl)-7-[4-(4-methylpiperazine-1-carbonyl)phenyl]-3,4-dihydro-1H-pyrido[2,3-b]pyrazin-2-one]
4.00 to 5.00 | 5.00 to 6.00 | 180 to 181 °C | CN1CCN(C(=O)c2ccc(-c3cnc4c(c3)N(Cc3ccccc3)CCN4)cc2)CC1 [Example 37, [4-(1-Benzyl-1,2,3,4-tetrahydropyrido[2,3-b]pyrazin-7-yl)phenyl]-(4-methylpiperazin-1-yl)methanone]
4.00 to 5.00 | < 4.00 | > 200 °C | O=C1CNc2ncc(I)cc2N1Cc1cccc(F)c1C(F)(F)F [Example 178, 1-[3-Fluoro-2-(trifluoromethyl)benzyl]-7-iodo-3,4-dihydro-1H-pyrido[2,3-b]pyrazin-2-one]
6.00 to 7.00 | > 7.00 | 272 °C | Fc1ccc(F)c(CN2CCNc3ncc(-c4cn[nH]c4)cc32)c1Cl [Example 192, 1-(2-Chloro-3,6-difluorobenzyl)-7-(1H-pyrazol-4-yl)-1,2,3,4-tetrahydropyrido[2,3-b]pyrazine]
< 4.00 | < 4.00 | 81 °C | O=C1CNc2ncc(I)cc2N1 [Example 2, 7-Iodo-3,4-dihydro-1H-pyrido[2,3-b]pyrazin-2-one]
4.00 to 5.00 | 5.00 to 6.00 | > 200 °C | CN(C)CCCCCCNC(=O)c1ccc(-c2cnc3c(c2)N(Cc2ccccc2)C(=O)CN3)cc1 [Example 16, 4-(1-benzyl-2-oxo-1,2,3,4-tetrahydropyrido[2,3-b]pyrazin-7-yl)-N-(6-dimethylaminohexyl)benzamide]
4.00 to 5.00 | 5.00 to 6.00 | 120 °C | O=C(c1ccc(-c2cnc3c(c2)N(Cc2ccccc2)CCN3)cc1)N1CCC(N2CCCC2)CC1 [Example 39, [4-(1-Benzyl-1,2,3,4-tetrahydropyrido[2,3-b]pyrazin-7-yl)phenyl]-(4-(pyrrolidin-1-yl)piperidin-1-yl)methanone]
4.00 to 5.00 | 4.00 to 5.00 | 152 to 153 °C | O=C(Cc1cc(F)ccc1F)N1CCNc2ncc(I)cc21 [Example 112, 2-(2,5-Difluorophenyl)-1-(7-iodo-3,4-dihydro-2H-pyrido[2,3-b]pyrazin-1-yl)ethanone]
5.00 to 6.00 | 6.00 to 7.00 | 235 to 236 °C (dec.) | CN1CCN(c2ccc(-c3cnc4c(c3)N(Cc3c(F)ccc(F)c3Cl)CC(=O)N4)cn2)CC1 [Example 437, 1-(2-Chloro-3,6-difluorobenzyl)-7-[6-(4-methylpiperazin-1-yl)pyridin-3-yl]-1,4-dihydro-2H-pyrido[2,3-b]pyrazin-3-one]

Compound | pIC50 [1] | pIC50 [2] | melting point
Clc1ccc(Cl)c(CN2CCNc3ncc(C4=CCNCC4)cc32)c1 [Example 131, 1-(2,5-Dichlorobenzyl)-7-(1,2,3,6-tetrahydropyridin-4-yl)-1,2,3,4-tetrahydropyrido[2,3-b]pyrazine] | 5.00 to 6.00 | 5.00 to 6.00 | 133 to 136 °C

From patent US7601716B2, “Pyridopyrazines and derivatives thereof as ALK and c-Met inhibitors” (Cephalon, Inc., priority 2006, dated 2009)
